# Assay results reported in patent US20260053931A1, “MDM2 TARGETING PROTACS” (THE WISTAR INSTITUTE OF ANATOMY AND BIOLOGY, priority 2023, published 2026).
# “Also recorded” adds a separate entry of the source. Read-outs that look alike come from different tables or passages of the source.
# How the values were obtained:
# MOLT1 = assay: Cell death of other cancer cell lines: MOLT1; format: cell-based; conditions: Homo sapiens; MOLT1, T-ALL
# Procedure: (§1) The PROTACs prepared herein were tested for their use in other cancer cell lines to determine activity in multiple different types of cancer.
# SU-DHL-8 = assay: Cell death of other cancer cell lines: SU-DHL-8; format: cell-based; conditions: Homo sapiens; SU-DHL-8, Diffuse large B cell lymphoma
# Procedure: as §1
# KPCA = assay: Cell death of other cancer cell lines: KPCA; format: cell-based; conditions: Ovarian, Mouse
# Procedure: as §1
# mut p53 MDA-MD-231 cells = assay: Live cell count with CellTag700 Stain in ICW format; conditions: after 24 h and 48 h treatment
# Procedure: Cells are seeded in 96 half area well plates (black clear bottom) and cultured overnight. Then they are treated with compounds, fixed with 4% paraformaldehyde for 20 minutes, and permeabilized in 0.1% Triton. They are then treated with the primary antibody and secondary antibody conjugated to IRDye800CW or treated with CellTag 700 Stain. The plates are then scanned on the OdysseyCLX and the data processed to provide a dose response curve.
# Since genetic deletion of Mdm2 induces p73 and induces apoptosis in p53 mutant and deficient cancer cells, YX-02-030 and YX-02-228 were evaluated for their effect on cell viability. First, the CellTag700 Stain was utilized to count the number of live cells in the ICW format.
# SEM cells = assay: Cell death of other cancer cell lines: SEM; format: cell-based; conditions: Homo sapiens, B-ALL
# Procedure: as §1
# Mdm2 [1] = biological target: T1, Mdm2 (Homo sapiens, UniProt Q00987); assay: In-Cell Western, mut p53 MDA-MB-231 cell line; format: cell-based; design: endogenous in cells; host or cells: MCF7 (A8); MDA-MB-231 (A9); conditions: mutant p53 MDA-MB-231
# Procedure: Cells were seeded at decreasing cell number from 15K cells to 2K cells. The Mdm2 primary antibody was tested at 1:200 and 1:300 dilution. The secondary antibody conjugated to IRDye800CW was used with 1:800 dilution, and CellTag 700 Stain was used at 1:1000 dilution as manufacture recommended. The linearity of cell number versus signal was generated with Prism. The signal over background ratio was also calculated.
# The potential PROTACs were evaluated in the wt p53 MCF7 cell line and in the mut p53 MDA-MB-231 cell line. Importantly these were compared to MD-224, which was recently reported to potently degrade Mdm2 in RS4; 11 leukemia cells (Li et al., 2019). Assay linearity was performed confirming a strong 4-fold signal to noise in the assay. A series of bi-functional molecules were then treated and evaluated for protein level in the assay over time from 2 h-48 h. […] In this wt p53 cancer cell line the stabilization of p53 (FIG. 15B), and subsequent p53-mediated transcriptional upregulation of Mdm2 make it difficult to observe degradation. […] These compounds were evaluated in the mutant p53 cancer cells. […] In this cell line, it takes approximately 16-24 h to detect the degradation. […] The difference in the molecules is that MD-224 utilizes a CRBN recruiting ligand.
# Target sequence in this assay (Q00987 whole entry): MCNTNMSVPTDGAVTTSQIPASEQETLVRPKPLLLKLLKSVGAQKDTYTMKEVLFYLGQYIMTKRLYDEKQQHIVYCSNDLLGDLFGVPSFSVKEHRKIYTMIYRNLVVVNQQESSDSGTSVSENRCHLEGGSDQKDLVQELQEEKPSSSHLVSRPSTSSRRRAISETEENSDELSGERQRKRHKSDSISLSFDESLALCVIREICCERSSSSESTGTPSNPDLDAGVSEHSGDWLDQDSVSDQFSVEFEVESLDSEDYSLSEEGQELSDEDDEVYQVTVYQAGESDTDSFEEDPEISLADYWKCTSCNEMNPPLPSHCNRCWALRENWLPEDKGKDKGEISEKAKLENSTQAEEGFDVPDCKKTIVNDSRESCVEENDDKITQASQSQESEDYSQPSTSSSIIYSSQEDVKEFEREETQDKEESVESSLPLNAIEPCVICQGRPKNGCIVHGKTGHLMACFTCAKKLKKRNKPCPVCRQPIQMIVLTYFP
# SU-DHL-6 = assay: Cell death of other cancer cell lines: SU-DHL-6; format: cell-based; conditions: Homo sapiens; SU-DHL-6, Diffuse large B cell lymphoma
# Procedure: as §1
# Hut-78 = assay: Cell death of other cancer cell lines: Hut-78; format: cell-based; conditions: Homo sapiens, HuT78; Hut-78, T cell lymphoma
# Procedure: as §1
# HH = assay: Cell death of other cancer cell lines: HH; format: cell-based; conditions: Homo sapiens, T cell lymphoma
# Procedure: as §1
# Mdm2 [2] = biological target: T1, Mdm2; assay: Mdm2 HTRF binding assay (Table 2)
# Text: An HTRF binding assay was developed using a biotinylated peptide containing the Mdm2-binding domain of p53 and a recombinant GST-tagged N-terminus of Mdm2 containing the p53-binding domain. HTRF is a proximity-based fluorescence energy transfer (FRET) assay that takes advantage of the unique time-resolved fluorescence of the lanthanide chelates, such as terbium and europium. HTRF IC50 values are provided for all key compounds (FIG. 13C, FIG. 19B, and Table 2).
# Target sequence in this assay (Q00987 26-109 limits assumed): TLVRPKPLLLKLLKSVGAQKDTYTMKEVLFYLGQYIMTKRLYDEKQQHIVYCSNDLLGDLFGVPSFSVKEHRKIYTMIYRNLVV
# PC9 = assay: Cell death of other cancer cell lines: PC9; format: cell-based; conditions: Homo sapiens, PC-9; PC9, Lung adenocarcinoma
# Procedure: as §1
# [3] = Mouse pharmacokinetic study, intraperitoneal; format: in vivo; conditions: single 10 mg/kg intraperitoneal dose, 0.25-6 h
# Procedure: To translate cell-based activity to in vivo efficacy, the Mdm2 PROTACs were evaluated for metabolic stability and plasma compound levels after IP injection in the mouse. Mouse liver microsome stability was obtained for lead compounds (Alliance Pharma, Inc; Malvern PA) as a predictive measure for suitable exposure in a mouse pharmacokinetic study. In brief, test compounds (0.5 μM) are incubated with liver microsomes ([…]) and an NADPH-regenerating system (cofactor solution) and samples are taken at various timepoints, quenched with an acetonitrile solution containing an internal standard, then analyzed by LC-MS/MS. […] Mouse pharmacokinetic studies for YX-02-030 and YX-02-288 were completed. Mouse plasma levels were evaluated following intraperitoneal (10 mg/kg) administration. Plasma was collected at timepoints 0.25 h, 0.5 h, 1 h, 2 h, 4 h and 6 h after Mdm2 PROTAC injection. Plasma was deproteinized and analyzed for compound using LC-MS/MS methods. Three mice were used for each time point and one control animal (Alliance Pharma Inc, Malvern PA).
# OVCAR4 = assay: Cell death of other cancer cell lines: OVCAR4; format: cell-based; conditions: Homo sapiens, OVCAR-4; OVCAR4, Ovarian
# Procedure: as §1
# Raji = assay: Cell death of other cancer cell lines: Raji; format: cell-based; conditions: Homo sapiens, Burkitt lymphoma, values may change up to ±1-2 μM depending on the cell density
# Procedure: as §1
# SUP-T1 = assay: Cell death of other cancer cell lines: SUP-T1; format: cell-based; conditions: Homo sapiens; SUP-T1, T-ALL
# Procedure: as §1
# H1299 = assay: Cell death of other cancer cell lines: H1299; format: cell-based; conditions: Homo sapiens, NCI-H1299; H1299, Lung adenocarcinoma
# Procedure: as §1
# SKOV3 = assay: Cell death of other cancer cell lines: SKOV3; format: cell-based; conditions: Homo sapiens, SK-OV-3; SKOV3, Ovarian
# Procedure: as §1
# RS4; 11 = assay: Cell death of other cancer cell lines: RS4; 11; format: cell-based; conditions: Homo sapiens, 11, B-ALL
# Procedure: as §1
Structure (SMILES),IC50 (MOLT1),IC50 (SU-DHL-8),IC50 (KPCA),"cytotoxic effect, number of live cells (mut p53 MDA-MD-231 cells)",IC50 (SEM cells),Mdm2 degradation (Mdm2 [1]),IC50 (SU-DHL-6),IC50 (Hut-78),IC50 (HH),IC50 (Mdm2 [2]),IC50 (PC9),in vivo plasma levels ([3]; 10 mg/kg),IC50 (OVCAR4),IC50 (Raji),IC50 (SUP-T1),IC50 (H1299),IC50 (SKOV3),IC50 (RS4; 11),IC50 (Mdm2 [2]; read-out: Mdm2 HTRF IC50),in vivo plasma levels [3]
CCOc1cc(C(C)(C)C)ccc1C1=N[C@](C)(c2ccc(Cl)cc2)[C@](C)(c2ccc(Cl)cc2)N1C(=O)N1CCN(CC(=O)NCCOCCOCCOCC(=O)N[C@H](C(=O)N2C[C@H](O)C[C@H]2C(=O)NCc2ccc(-c3scnc3C)cc2)C(C)(C)C)CC1 (racemic) [YX-02-030],2.6 µM,1.9 µM,2.9 µM,potent cytotoxic effects,3.2 µM,degrade Mdm2,3.6 µM,9 µM,6.3 µM,0.014 µM,4.5 µM,prolonged in vivo plasma exposure; also recorded: plasma levels stable over 6 hours,4.6 µM,2.8 µM,5.7 µM,4.2 µM,5.7 µM,1.9 µM,–,–
"CCOc1cc(C(C)(C)C)ccc1C1=N[C@](C)(c2ccc(Cl)cc2)[C@](C)(c2ccc(Cl)cc2)N1C(=O)N1CCN(CC(=O)NCCCNC(=O)COc2ccc3c(c2)CN(C(=O)[C@H](NC(=O)[C@@H](C)NC)C(C)(C)C)[C@@H](C(=O)N[C@H]2CCCc4ccccc42)C3)CC1 [YX-02-228, (R)-7-(2-((3-(2-(4-((4R,5S)-2-(4-(tert-butyl)-2-ethoxyphenyl)-4,5-bis(4-chlorophenyl)-4,5-dimethyl-4,5-dihydro-1H-imidazole-1-carbonyl)piperazin-1-yl)acetamido)propyl)amino)-2-oxoethoxy)-2-((R)-3,3-dimethyl-2-((R)-2-(methylamino)propanamido)butanoyl)-N-((S)-1,2,3,4-tetrahydronaphthalen-1-yl)-1,2,3,4-tetrahydroisoquinoline-3-carboxamide]",2.7 µM,4.6 µM,3.4 µM,potent cytotoxic effects,4.2 µM,degrade Mdm2,2.9 µM,8.8 µM,5.5 µM,–,4.6 µM,–,4.8 µM,5.9 µM,6 µM,5.3 µM,3.2 µM,2.5 µM,0.013 µM,prolonged in vivo plasma exposure
